Measured values: patent US12023319B2, “Carboxylic acid aromatic amides” (priority 2016, dated 2024)

How the values were obtained:
Female Brown Norway rats = test: Rat model for endometriosis, acute phase (4 day); type: in vivo; conditions: rat 4 day endometriosis model, once daily p.o. 1, 5, 15, 60 mg/kg
Experimental: 4. Rat Model for Endometriosis, Acute Phase Female Brown Norway rats (Charles-River) were treated p.o. with Compound Example 3 (doses: 1 mg/kg, 5 mg/kg, 15 mg/kg, 60 mg/kg) or vehicle alone (10% DMSO+90% phosphate buffered saline (PBS)). 2 h later all animals got under deep anesthesia a transplantation of 6 uterus pieces in the peritoneal cavity. The tissue was obtained from donor animals which were pre-treated with 3 μg s.c. Estradiol (E2) for 2 days to guarantee standardized conditions of the uterus tissue. The animals were treated once daily p.o. with Compound Example 3 (doses: 1 mg/kg, 5 mg/kg, 15 mg/kg, 60 mg/kg) or vehicle alone (10% DMSO+90% phosphate buffered saline (PBS). 4 days later the animals were sacrificed and the transplants as surrogate endometriosis lesion tissue were analyzed for markers of lesion activity (inflammatory cytokines and proliferation marker). This approach is mimicking the early inflammatory phase of endometriosis close to menstruation. Analysis For RNA expression analysis the lesions, were excised. RNA was isolated after homogenization of tissues in guanidinium thiocyanate using the RNeasy mini Kit (Qiagen) with DNase digestion. […] Relative mRNA levels were calculated using the comparative CT method using the RQ-Manager software (Applied Biosystems). […]

Male Sprague Dawley rats = test: Rat CFA in vivo model (mechanical hyperalgesia, paw withdrawal threshold); conditions: 2 hours post-compound
Experimental: Male Sprague Dawley rats were used. Mechanical hyperalgesia was induced by injecting 25 μL of Complete Freund's Adjuvant (CFA) into the plantar surface of one hind paw. Mechanical hyperalgesia was measured using the Pressure Application Measurement apparatus (Ugo Basile, Gemonio, Italy). Briefly, a linearly increasing pressure was applied to an area of ˜50 mm^2 of the plantar side of the hind paw until a behavioural response (paw withdrawal) was observed or until the pressure reached 1000 gf. The pressure at which the behavioural response occurred was recorded as the “Paw Withdrawal Threshold” (PWT). Both CFA-injected and contralateral PWTs were determined for each rat, in each treatment group and at each time point of the studies. The Compound Examples were administered orally in a vehicle of dimethylsulfoxide (DMSO), Polyethylenglycol (PEG) and 2-hydroxypropyl-beta-cyclodextrin (HPCD) (v/v/v=3:20:77). Rats received a first dose of […] of Compound Example per kg body weight 1 hour before CFA injection and a second dose 24 hours after the CFA injection. Mechanical hyperalgesia testing was performed approximately 2 hours before CFA injection, then 2 and 4 hours after the second dose of Compound Example (i.e. 26 and 28 hours after CFA treatment). Data were expressed as the mean±S.D. Area Under the Curve (AUC) of PWTs (defined in table 3 as “AUC of Paw withdrawal threshold (AUC 0-4 hours) post-vehicle” with respect to vehicle group or “AUC of Paw withdrawal threshold (AUC 0-4 hours) post-drug” with respect to Compound Example). Data were analysed by performing a one-way ANOVA followed by a Dunnett's post hoc test. For p values less than 0.05 the results were deemed to be statistically significant.

SMILES: O=C(O)c1cc(NC(=O)C2(c3ccc(C(F)(F)F)cc3F)CC2)ccc1-c1cnn(C2CCC2)c1 [Example 3, 2-(1-Cyclobutyl-1H-pyrazol-4-yl)-5-[({1-[2-fluoro-4-(trifluoromethyl)phenyl]cyclopropyl}carbonyl)amino]benzoic acid]
- expression of proliferation marker (PCNA) in lesions (Female Brown Norway rats; FIG. 1): decreased
- expression of inflammatory cytokines in lesions (TNF alpha, IL-1 beta, IL-6) (Female Brown Norway rats; FIG. 2-4): decreased
- Paw withdrawal threshold 2 hours post-compound (Male Sprague Dawley rats; 0.75 mg/kg p.o.): 659 ± 20 gf (ns)
- Paw withdrawal threshold 2 hours post-compound (Male Sprague Dawley rats; 3 mg/kg p.o.): 782 ± 50 gf (****)
- Paw withdrawal threshold 2 hours post-compound (Male Sprague Dawley rats; 15 mg/kg p.o.): 812 ± 44 gf (****)
- Paw withdrawal threshold 2 hours post-compound (Male Sprague Dawley rats; 60 mg/kg p.o.): 885 ± 30 gf (****)
